Measurements reported in patent US10004701B2, “Methods and compositions for treating infection” (UNIVERSITY OF ROCHESTER, priority 2012, dated 2018).
Structures can show the parent of a compound that is named as a salt. Where two headings read alike, the source gives them in different places.

What was measured:
Test in all cases: AK assay 384-well format, Prestwick library screening
[1] = test system: K. pneumoniae; format: cell-based, Klebsiella pneumoniae; details: 50 μM final drug concentration; for fold induction at 50 µM: Klebsiella pneumoniae, 3 h
[2] = test system: E. cloacae; format: cell-based, Enterobacter cloacae; details: for fold induction at 50 µM: Enterobacter cloacae, 3 h
[3] = test system: P. aeruginosa; format: cell-based, Pseudomonas aeruginosa; details: 50 μM final drug concentration; for fold induction at 50 µM: Pseudomonas aeruginosa, 3 h
[4] = test system: S. aureus strain USA300-0114; format: cell-based, Staphylococcus aureus; details: 50 μM final drug concentration; for fold induction at 50 µM: Staphylococcus aureus, USA300, 3 h
[5] = test system: E. coli; format: cell-based, Escherichia coli; details: 50 μM final drug concentration; for fold induction at 50 µM: Escherichia coli, 3 h
[6] = test system: E. faecium; format: cell-based, Enterococcus faecium; details: 50 μM final drug concentration; for fold induction at 50 µM: Enterococcus faecium, 3 h
[7] = test system: A. baumannii strain 98-37-09; format: cell-based, Acinetobacter baumannii; details: 50 μM final drug concentration; for fold induction at 50 µM: Acinetobacter baumannii, 983709, 3 h
[8] = planktonic K. pneumoniae, […], read-out: AK-based Prestwick Library Screening Results, K. pneumoniae (increase in extracellular AK activity)
[9] = planktonic E. cloacae, 50 μM final drug concentration, […], read-out: AK-based Prestwick Library Screening Results, E. cloacae (increase in extracellular AK activity)
[10] = planktonic P. aeruginosa, […], read-out: AK-based Prestwick Library Screening Results, P. aeruginosa (increase in extracellular AK activity)
[11] = planktonic S. aureus, […], read-out: AK-based Prestwick Library Screening Results, S. aureus (increase in extracellular AK activity)
[12] = planktonic E. coli, […], read-out: AK-based Prestwick Library Screening Results, E. coli (increase in extracellular AK activity)
[13] = planktonic E. faecium, […], read-out: AK-based Prestwick Library Screening Results, E. faecium (increase in extracellular AK activity)
[14] = planktonic A. baumannii, […], read-out: AK-based Prestwick Library Screening Results, A. baumannii (increase in extracellular AK activity)

`CCN1C[C@]2(COC)[C@H](O)C[C@H](OC)[C@@]34[C@@H]5C[C@@]6(O)[C@H](OC(=O)c7ccccc7)[C@@H]5[C@@](OC(C)=O)([C@@H]([C@H](OC)[C@H]23)[C@@H]14)[C@@H](O)[C@@H]6OC` [Aconitine] gave a fold induction at 50 µM [1, 8] of 0.5, a fold induction at 50 µM [2, 9] of 0.6 and a fold induction at 50 µM [3, 10] of 0.5. It also gave a fold induction at 50 µM [4, 11] of 0.5, a fold induction at 50 µM [5, 12] of 0.6 and a fold induction at 50 µM [6, 13] of 0.9. For the same compound, the fold induction at 50 µM [7, 14] was 0.6.
With `Nc1nc2c(ncn2COCCO)c(=O)[nH]1` [Acyclovir] the fold induction at 50 µM ([1]; 384-well format, cutoff for positive-scoring molecules 3-fold increase, read-out: AK-based Prestwick Library Screening Results, K. pneumoniae (increase in extracellular AK activity)) was 0.5, the fold induction at 50 µM ([2]; 50 μM final drug concentration, 384-well format, cutoff for positive-scoring molecules 3-fold increase, read-out: AK-based Prestwick Library Screening Results, E. cloacae (increase in extracellular AK activity)) was 0.3 and the fold induction at 50 µM ([3]; 384-well format, cutoff for positive-scoring molecules 3-fold increase, read-out: AK-based Prestwick Library Screening Results, P. aeruginosa (increase in extracellular AK activity)) was 0.4. It also gave a fold induction at 50 µM ([4]; 384-well format, cutoff for positive-scoring molecules 3-fold increase, read-out: AK-based Prestwick Library Screening Results, S. aureus (increase in extracellular AK activity)) of 0.5, a fold induction at 50 µM ([5]; 384-well format, cutoff for positive-scoring molecules 3-fold increase, read-out: AK-based Prestwick Library Screening Results, E. coli (increase in extracellular AK activity)) of 0.5 and a fold induction at 50 µM ([6]; 384-well format, cutoff for positive-scoring molecules 3-fold increase, read-out: AK-based Prestwick Library Screening Results, E. faecium (increase in extracellular AK activity)) of 0.9. It also gave a fold induction at 50 µM ([7]; 384-well format, cutoff for positive-scoring molecules 3-fold increase, read-out: AK-based Prestwick Library Screening Results, A. baumannii (increase in extracellular AK activity)) of 0.4.
For `NC12CC3CC(CC(C3)C1)C2.NC12CC3CC(CC(C3)C1)C2.O=C(O)/C=C/C(=O)O` [Adamantamine fumarate], the “AK-based Prestwick Library Screening Results: K. pneumoniae (increase in extracellular AK activity)” value ([1]; planktonic K. pneumoniae, 384-well, cutoff for positive-scoring molecules 3-fold increase) was 0.5, the “AK-based Prestwick Library Screening Results: E. cloacae (increase in extracellular AK activity)” value ([2]; planktonic E. cloacae, 50 μM final drug concentration, 384-well, cutoff for positive-scoring molecules 3-fold increase) was 0.4 and the “AK-based Prestwick Library Screening Results: P. aeruginosa (increase in extracellular AK activity)” value ([3]; planktonic P. aeruginosa, 384-well, cutoff for positive-scoring molecules 3-fold increase) was 0.4. The “AK-based Prestwick Library Screening Results: S. aureus (increase in extracellular AK activity)” value ([4]; planktonic S. aureus, 384-well, cutoff for positive-scoring molecules 3-fold increase) was 0.4, the “AK-based Prestwick Library Screening Results: E. coli (increase in extracellular AK activity)” value ([5]; planktonic E. coli, 384-well, cutoff for positive-scoring molecules 3-fold increase) was 0.5 and the “AK-based Prestwick Library Screening Results: E. faecium (increase in extracellular AK activity)” value ([6]; planktonic E. faecium, 384-well, cutoff for positive-scoring molecules 3-fold increase) was 0.9. The “AK-based Prestwick Library Screening Results: A. baumannii (increase in extracellular AK activity)” value ([7]; planktonic A. baumannii, 384-well, cutoff for positive-scoring molecules 3-fold increase) was 0.5.
In the case of `Nc1ncnc2c1ncn2[C@@H]1O[C@H](COP(=O)(O)O)[C@@H](O)[C@H]1O` [Adenosine 5′-monophosphate monohydrate], the fold induction at 50 µM [1, 8] is reported as 0.6, the fold induction at 50 µM [2, 9] is reported as 1.2 and the fold induction at 50 µM [3, 10] is reported as 0.8. The fold induction at 50 µM [4, 11] was 0.6, the fold induction at 50 µM [5, 12] was 0.8 and the fold induction at 50 µM [6, 13] was 0.8. For the same compound, the fold induction at 50 µM [7, 14] was 0.7.
`CCN(CC)CCOC(=O)C(c1ccccc1)c1ccccc1` [Adiphenine hydrochloride] showed a fold induction at 50 µM ([1]; planktonic K. pneumoniae, 384-well, cutoff for positive-scoring molecules 3-fold increase, read-out: AK-based Prestwick Library Screening Results: K. pneumoniae (increase in extracellular AK activity)) of 1, a fold induction at 50 µM ([2]; planktonic E. cloacae, 50 μM final drug concentration, 384-well, cutoff for positive-scoring molecules 3-fold increase, read-out: AK-based Prestwick Library Screening Results: E. cloacae (increase in extracellular AK activity)) of 1.5 and a fold induction at 50 µM ([3]; planktonic P. aeruginosa, 384-well, cutoff for positive-scoring molecules 3-fold increase, read-out: AK-based Prestwick Library Screening Results: P. aeruginosa (increase in extracellular AK activity)) of 0.9. For the same compound, the fold induction at 50 µM ([4]; planktonic S. aureus, 384-well, cutoff for positive-scoring molecules 3-fold increase, read-out: AK-based Prestwick Library Screening Results: S. aureus (increase in extracellular AK activity)) was 1.3, the fold induction at 50 µM ([5]; planktonic E. coli, 384-well, cutoff for positive-scoring molecules 3-fold increase, read-out: AK-based Prestwick Library Screening Results: E. coli (increase in extracellular AK activity)) was 1.2 and the fold induction at 50 µM ([6]; planktonic E. faecium, 384-well, cutoff for positive-scoring molecules 3-fold increase, read-out: AK-based Prestwick Library Screening Results: E. faecium (increase in extracellular AK activity)) was 1. It also gave a fold induction at 50 µM ([7]; planktonic A. baumannii, 384-well, cutoff for positive-scoring molecules 3-fold increase, read-out: AK-based Prestwick Library Screening Results: A. baumannii (increase in extracellular AK activity)) of 1.3.
`C[C@]12CCC(=O)C=C1CC[C@@H]1[C@@H]2C(=O)C[C@]2(C)C(=O)CC[C@@H]12` [Adrenosterone] was tested, and the “AK-based Prestwick Library Screening Results, K. pneumoniae (fold increase in extracellular AK activity)” value ([1]; planktonic, […]) was 0.6, the “AK-based Prestwick Library Screening Results, E. cloacae (fold increase in extracellular AK activity)” value ([2]; 50 μM final drug concentration, planktonic, […]) was 1.2 and the “AK-based Prestwick Library Screening Results, P. aeruginosa (fold increase in extracellular AK activity)” value ([3]; planktonic, […]) was 0.6. The “AK-based Prestwick Library Screening Results, S. aureus (fold increase in extracellular AK activity)” value ([4]; planktonic, […]) was 0.6, the “AK-based Prestwick Library Screening Results, E. coli (fold increase in extracellular AK activity)” value ([5]; planktonic, […]) was 0.7 and the “AK-based Prestwick Library Screening Results, E. faecium (fold increase in extracellular AK activity)” value ([6]; planktonic, […]) was 0.9. For the same compound, the “AK-based Prestwick Library Screening Results, A. baumannii (fold increase in extracellular AK activity)” value ([7]; planktonic, […]) was 0.8.
`COC(=O)C1=CO[C@@H](C)[C@H]2CN3CCc4c([nH]c5ccccc45)[C@@H]3C[C@H]12.Cl` [Ajmalicine hydrochloride] was tested, and the “AK-based Prestwick Library Screening Results, K. pneumoniae (increase in extracellular AK activity)” value ([1]; planktonic K. pneumoniae, cutoff for positive-scoring molecules 3-fold increase) was 0.7, the “AK-based Prestwick Library Screening Results, E. cloacae (increase in extracellular AK activity)” value ([2]; planktonic E. cloacae, 50 μM final drug concentration, cutoff for positive-scoring molecules 3-fold increase) was 1.2 and the “AK-based Prestwick Library Screening Results, P. aeruginosa (increase in extracellular AK activity)” value ([3]; planktonic P. aeruginosa, cutoff for positive-scoring molecules 3-fold increase) was 0.9. The “AK-based Prestwick Library Screening Results, S. aureus (increase in extracellular AK activity)” value ([4]; planktonic S. aureus, cutoff for positive-scoring molecules 3-fold increase) was 0.5, the “AK-based Prestwick Library Screening Results, E. coli (increase in extracellular AK activity)” value ([5]; planktonic E. coli, cutoff for positive-scoring molecules 3-fold increase) was 0.9 and the “AK-based Prestwick Library Screening Results, E. faecium (increase in extracellular AK activity)” value ([6]; planktonic E. faecium, cutoff for positive-scoring molecules 3-fold increase) was 0.9. The “AK-based Prestwick Library Screening Results, A. baumannii (increase in extracellular AK activity)” value ([7]; planktonic A. baumannii, cutoff for positive-scoring molecules 3-fold increase) was 0.9.
`CC[C@H]1[C@@H]2C[C@H]3[C@@H]4N(C)c5ccccc5[C@]45C[C@@H]([C@H]2[C@H]5O)N3[C@@H]1O` [Ajmaline] was tested, and the fold induction at 50 µM ([1]; planktonic, […], read-out: AK-based Prestwick Library Screening Results, K. pneumoniae (fold increase in extracellular AK activity)) was 0.9, the fold induction at 50 µM ([2]; 50 μM final drug concentration, planktonic, […], read-out: AK-based Prestwick Library Screening Results, E. cloacae (fold increase in extracellular AK activity)) was 1.6 and the fold induction at 50 µM ([3]; planktonic, […], read-out: AK-based Prestwick Library Screening Results, P. aeruginosa (fold increase in extracellular AK activity)) was 1.1. The fold induction at 50 µM ([4]; planktonic, […], read-out: AK-based Prestwick Library Screening Results, S. aureus (fold increase in extracellular AK activity)) was 1, the fold induction at 50 µM ([5]; planktonic, […], read-out: AK-based Prestwick Library Screening Results, E. coli (fold increase in extracellular AK activity)) was 1.2 and the fold induction at 50 µM ([6]; planktonic, […], read-out: AK-based Prestwick Library Screening Results, E. faecium (fold increase in extracellular AK activity)) was 1.1. The fold induction at 50 µM ([7]; planktonic, […], read-out: AK-based Prestwick Library Screening Results, A. baumannii (fold increase in extracellular AK activity)) was 1.1.
`CCCSc1ccc2nc(NC(=O)OC)[nH]c2c1` [Albendazole] was tested, and the fold induction at 50 µM ([1]; 384-well format, […], read-out: AK-based Prestwick Library Screening Results, K. pneumoniae (increase in extracellular AK activity)) was 0.3, the fold induction at 50 µM ([2]; read-out: AK-based Prestwick Library Screening Results, E. cloacae (increase in extracellular AK activity)) was 0.4 and the fold induction at 50 µM ([3]; 384-well format, […], read-out: AK-based Prestwick Library Screening Results, P. aeruginosa (increase in extracellular AK activity)) was 0.3. For the same compound, the fold induction at 50 µM ([4]; 384-well format, […], read-out: AK-based Prestwick Library Screening Results, S. aureus (increase in extracellular AK activity)) was 0.2, the fold induction at 50 µM ([5]; 384-well format, […], read-out: AK-based Prestwick Library Screening Results, E. coli (increase in extracellular AK activity)) was 0.3 and the fold induction at 50 µM ([6]; 384-well format, […], read-out: AK-based Prestwick Library Screening Results, E. faecium (increase in extracellular AK activity)) was 0.5. For the same compound, the fold induction at 50 µM ([7]; 384-well format, […], read-out: AK-based Prestwick Library Screening Results, A. baumannii (increase in extracellular AK activity)) was 0.3.
